Experiments:
Assay type in all cases: functional
LOX IMVI = test: Growth inhibition of human LOXIMVI cells assessed as cell growth at 10 uM after 48 hrs by sulforhodamine B assay relative to control; conditions: read-out: Activity
A549 = test: Growth inhibition of human A549/ATCC cells assessed as cell growth at 10 uM after 48 hrs by sulforhodamine B assay relative to control; conditions: A549, 48 h, read-out: Activity
EKVX = test: Growth inhibition of human EKVX cells assessed as cell growth at 10 uM after 48 hrs by sulforhodamine B assay relative to control; conditions: read-out: Activity
SF-295 = test: Growth inhibition of human SF295 cells assessed as cell growth at 10 uM after 48 hrs by sulforhodamine B assay relative to control; conditions: SF-295, 48 h, read-out: Activity
A498 = test: Growth inhibition of human A498 cells assessed as cell growth at 10 uM after 48 hrs by sulforhodamine B assay relative to control; conditions: A498, 48 h, read-out: Activity
786-0 = test: Growth inhibition of human 786-0 cells assessed as cell growth at 10 uM after 48 hrs by sulforhodamine B assay relative to control; conditions: 786-0, 48 h, read-out: Activity
UACC-62 = test: Growth inhibition of human UACC62 cells assessed as cell growth at 10 uM after 48 hrs by sulforhodamine B assay relative to control; conditions: UACC-62, 48 h, read-out: Activity
M14 = test: Growth inhibition of human M14 cells assessed as cell growth at 10 uM after 48 hrs by sulforhodamine B assay relative to control; conditions: M14, 48 h, read-out: Activity
Malme-3M = test: Growth inhibition of human MALME-3M cells assessed as cell growth at 10 uM after 48 hrs by sulforhodamine B assay relative to control; conditions: read-out: Activity
NCI-H226 = test: Growth inhibition of human NCI-H226 cells assessed as cell growth at 10 uM after 48 hrs by sulforhodamine B assay relative to control; conditions: NCI-H226, 48 h, read-out: Activity
NCI-H522 = test: Growth inhibition of human NCI-H522 cells assessed as cell growth at 10 uM after 48 hrs by sulforhodamine B assay relative to control; conditions: NCI-H522, 48 h, read-out: Activity
HOP-62 = test: Growth inhibition of human HOP62 cells assessed as cell growth at 10 uM after 48 hrs by sulforhodamine B assay relative to control; conditions: HOP-62, 48 h, read-out: Activity
MCF7 = test: Growth inhibition of human MCF7 cells assessed as cell growth at 10 uM after 48 hrs by sulforhodamine B assay relative to control; conditions: MCF7, 48 h, read-out: Activity
ACHN = test: Growth inhibition of human ACHN cells assessed as cell growth at 10 uM after 48 hrs by sulforhodamine B assay relative to control; conditions: read-out: Activity
SF-268 = test: Growth inhibition of human SF268 cells assessed as cell growth at 10 uM after 48 hrs by sulforhodamine B assay relative to control; conditions: SF-268, 48 h, read-out: Activity
SNB-75 = test: Growth inhibition of human SNB75 cells assessed as cell growth at 10 uM after 48 hrs by sulforhodamine B assay relative to control; conditions: SNB-75, 48 h, read-out: Activity
NCI-H460 = test: Growth inhibition of human NCI-H460 cells assessed as cell growth at 10 uM after 48 hrs by sulforhodamine B assay relative to control; conditions: NCI-H460, 48 h, read-out: Activity
HL-60(TB) = test: Growth inhibition of human HL-60(TB) cells assessed as cell growth at 10 uM after 48 hrs by sulforhodamine B assay relative to control; conditions: HL-60, 48 h, read-out: Activity
RPMI-8226 = test: Growth inhibition of human RPMI8226 cells assessed as cell growth at 10 uM after 48 hrs by sulforhodamine B assay relative to control; conditions: RPMI-8226, 48 h, read-out: Activity
SK-MEL-2 = test: Growth inhibition of human SK-MEL-2 cells assessed as cell growth at 10 uM after 48 hrs by sulforhodamine B assay relative to control; conditions: SK-MEL-2, 48 h, read-out: Activity
NCI-H23 = test: Growth inhibition of human NCI-H23 cells assessed as cell growth at 10 uM after 48 hrs by sulforhodamine B assay relative to control; conditions: NCI-H23, 48 h, read-out: Activity
PC-3 = test: Growth inhibition of human PC3 cells assessed as cell growth at 10 uM after 48 hrs by sulforhodamine B assay relative to control; conditions: PC-3, 48 h, read-out: Activity
OVCAR-8 = test: Growth inhibition of human OVCAR8 cells assessed as cell growth at 10 uM after 48 hrs by sulforhodamine B assay relative to control; conditions: OVCAR-8, 48 h, read-out: Activity
CCRF-CEM = test: Growth inhibition of human CCRF-CEM cells assessed as cell growth at 10 uM after 48 hrs by sulforhodamine B assay relative to control; conditions: read-out: Activity
CAKI-1 = test: Growth inhibition of human Caki1 cells assessed as cell growth at 10 uM after 48 hrs by sulforhodamine B assay relative to control; conditions: CAKI-1, 48 h, read-out: Activity
HCC 2998 = test: Growth inhibition of human HCC2998 cells assessed as cell growth at 10 uM after 48 hrs by sulforhodamine B assay relative to control; conditions: HCC 2998, 48 h, read-out: Activity
OVCAR-5 = test: Growth inhibition of human OVCAR5 cells assessed as cell growth at 10 uM after 48 hrs by sulforhodamine B assay relative to control; conditions: OVCAR-5, 48 h, read-out: Activity
BT-549 = test: Growth inhibition of human BT549 cells assessed as cell growth at 10 uM after 48 hrs by sulforhodamine B assay relative to control; conditions: BT-549, 48 h, read-out: Activity
NCI-H322M = test: Growth inhibition of human NCI-H322M cells assessed as cell growth at 10 uM after 48 hrs by sulforhodamine B assay relative to control; conditions: read-out: Activity
HT-29 = test: Growth inhibition of human HT-29 cells assessed as cell growth at 10 uM after 48 hrs by sulforhodamine B assay relative to control; conditions: HT-29, 48 h, read-out: Activity
RXF 393 = test: Growth inhibition of human RXF393 cells assessed as cell growth at 10 uM after 48 hrs by sulforhodamine B assay relative to control; conditions: RXF 393, 48 h, read-out: Activity
NCI/ADR-RES = test: Growth inhibition of human NCI/ADR-RES cells assessed as cell growth at 10 uM after 48 hrs by sulforhodamine B assay relative to control; conditions: read-out: Activity
MDA-MB-231 = test: Growth inhibition of human MDA-MB-231 cells assessed as cell growth at 10 uM after 48 hrs by sulforhodamine B assay relative to control; conditions: MDA-MB-231, 48 h, read-out: Activity
SNB-19 = test: Growth inhibition of human SNB19 cells assessed as cell growth at 10 uM after 48 hrs by sulforhodamine B assay relative to control; conditions: SNB-19, 48 h, read-out: Activity

Compound | growth at 10 µM (LOX IMVI) | growth at 10 µM (A549) | growth at 10 µM (EKVX) | growth at 10 µM (A498) | growth at 10 µM (786-0) | growth at 10 µM (UACC-62) | growth at 10 µM (M14) | growth at 10 µM (Malme-3M) | growth at 10 µM (NCI-H226) | growth at 10 µM (NCI-H522) | growth at 10 µM (HOP-62) | growth at 10 µM (MCF7) | growth at 10 µM (ACHN) | growth at 10 µM (SF-268) | growth at 10 µM (SNB-75) | growth at 10 µM (NCI-H460) | growth at 10 µM (HL-60(TB)) | growth at 10 µM (RPMI-8226) | growth at 10 µM (SK-MEL-2) | growth at 10 µM (NCI-H23) | further results
COc1ccc(Cn2cc(C(=O)N/N=C3/C(=O)Nc4c(F)cccc43)nn2)cc1 | 97.8% | 93.2% | 107% | 113% | 101% | 89.3% | 101% | 78.2% | 91.9% | 88.6% | 98.4% | 94.1% | 86.4% | 100% | 90.1% | 105% | 90.7% | 89.7% | 93.3% | 90.1% | growth at 10 µM (SF-295): 98%; growth at 10 µM (PC-3): 83.3%; growth at 10 µM (OVCAR-8): 85.5%; growth at 10 µM (CCRF-CEM): 90.2%; growth at 10 µM (CAKI-1): 84.2%; growth at 10 µM (HCC 2998): 102%; growth at 10 µM (OVCAR-5): 94.8%; growth at 10 µM (BT-549): 105%; growth at 10 µM (NCI-H322M): 97.5%; growth at 10 µM (HT-29): 86.5%; growth at 10 µM (RXF 393): 86.3%; growth at 10 µM (NCI/ADR-RES): 96.9%; growth at 10 µM (MDA-MB-231): 96.3%; growth at 10 µM (SNB-19): 94.2%
COc1ccc(Cn2cc(C(=O)N/N=C3/C(=O)Nc4ccc(C)cc43)nn2)cc1 | 102% | 97.9% | 108% | 91.6% | 96.3% | 94.6% | 109% | 106% | 93% | 83.6% | 112% | 89.2% | 111% | 94.1% | 110% | 105% | 84.8% | 105% | 92.9% | 104% | growth at 10 µM (SF-295): 111%; growth at 10 µM (PC-3): 97.3%; growth at 10 µM (OVCAR-8): 104%; growth at 10 µM (CCRF-CEM): 98.1%; growth at 10 µM (CAKI-1): 95.4%; growth at 10 µM (HCC 2998): 99.9%; growth at 10 µM (OVCAR-5): 105%; growth at 10 µM (BT-549): 112%; growth at 10 µM (NCI-H322M): 102%; growth at 10 µM (HT-29): 87.1%; growth at 10 µM (RXF 393): 117%; growth at 10 µM (NCI/ADR-RES): 100%; growth at 10 µM (MDA-MB-231): 110%; growth at 10 µM (SNB-19): 98%
COc1ccc(Cn2cc(C(=O)N/N=C3/C(=O)Nc4ccccc43)nn2)cc1 | 102% | 98.4% | 104% | 96% | 106% | 96.7% | 103% | 97.2% | 86.8% | 87.8% | 104% | 96.5% | 107% | 101% | 95.3% | 109% | 93.3% | 105% | 94.8% | 103% | growth at 10 µM (SF-295): 103%; growth at 10 µM (PC-3): 103%; growth at 10 µM (OVCAR-8): 97.8%; growth at 10 µM (CCRF-CEM): 104%; growth at 10 µM (CAKI-1): 93.3%; growth at 10 µM (HCC 2998): 110%; growth at 10 µM (OVCAR-5): 93%; growth at 10 µM (BT-549): 115%; growth at 10 µM (NCI-H322M): 97.9%; growth at 10 µM (HT-29): 99.2%; growth at 10 µM (RXF 393): 101%; growth at 10 µM (NCI/ADR-RES): 97.2%; growth at 10 µM (MDA-MB-231): 101%; growth at 10 µM (SNB-19): 98%
COc1ccc(Cn2cc(C(=O)N/N=C3/C(=O)Nc4c(C)cccc43)nn2)cc1 | 75.3% | 85.3% | 107% | 101% | 43.5% | 74.1% | 71.9% | 40.5% | 75.1% | 77.5% | 106% | 84.9% | 38.2% | 87.3% | 27.3% | 73% | 78.9% | 90% | 91.9% | 89.1% | growth at 10 µM (SF-295): 111%; growth at 10 µM (PC-3): 61.3%; growth at 10 µM (OVCAR-8): 67.6%; growth at 10 µM (CCRF-CEM): 82.8%; growth at 10 µM (CAKI-1): 77.1%; growth at 10 µM (HCC 2998): 101%; growth at 10 µM (OVCAR-5): 93.6%; growth at 10 µM (BT-549): 103%; growth at 10 µM (NCI-H322M): 89.6%; growth at 10 µM (HT-29): 67.5%; growth at 10 µM (RXF 393): 81.9%; growth at 10 µM (NCI/ADR-RES): 71.2%; growth at 10 µM (MDA-MB-231): 51%; growth at 10 µM (SNB-19): 97.5%
COc1ccc(Cn2cc(C(=O)N/N=C3/C(=O)Nc4ccc(F)c(Cl)c43)nn2)cc1 | 100% | 98% | 108% | 91.3% | 103% | 108% | 107% | 103% | 93.2% | 84% | 112% | 91.8% | 111% | 99.4% | 103% | 108% | 78.7% | 116% | 95.6% | 98% | growth at 10 µM (PC-3): 105%; growth at 10 µM (OVCAR-8): 99.2%; growth at 10 µM (CCRF-CEM): 109%; growth at 10 µM (CAKI-1): 96.8%; growth at 10 µM (HCC 2998): 104%; growth at 10 µM (OVCAR-5): 122%; growth at 10 µM (BT-549): 117%; growth at 10 µM (NCI-H322M): 105%; growth at 10 µM (HT-29): 98%; growth at 10 µM (RXF 393): 104%; growth at 10 µM (NCI/ADR-RES): 104%; growth at 10 µM (MDA-MB-231): 109%; growth at 10 µM (SNB-19): 101%
